Literature values as cited in patent US20170000414A1, “Use of Blood Flow Parameters to Monitor or Control the Dosing of Anti-Platelet Agents” (RHEOVECTOR, LLC, priority 2014, published 2017).

Assays:
[1] = aspirin 81 mg; healthy individuals
[2] = 18,624 patients having prior acute coronary syndrome

SMILES: CC(=O)Oc1ccccc1C(=O)O [Aspirin, acetylsalicylic acid]
- effect on blood viscosity [1]: no significant effect

SMILES: CCCSc1nc(N[C@@H]2C[C@H]2c2ccc(F)c(F)c2)c2nnn([C@@H]3C[C@H](OCCO)[C@@H](O)[C@H]3O)c2n1 [Ticagrelor]
- rate of cardiovascular disease (CVD) events and death compared with clopidogrel [2]: reduce significantly

SMILES: COC(=O)[C@H](c1ccccc1Cl)N1CCc2sccc2C1 [clopidogrel]
- reducing CVD events or death, compared with aspirin 325 mg (clopidogrel 75 mg, 19,185 patients with atherosclerosis (symptomatic PAD, recent ischemic stroke or MI)): more effective
- relative risk reduction (group entering the trial with symptomatic PAD, p=0.0028): 23.8%
- reduction in MI, stroke or cardiovascular death rates (patients who entered the trial with an ischemic stroke or MI): no reduction
